Measured values: ChEMBL document CHEMBL1149214, “1,2-Diaryl-1-ethanone and pyrazolo [4,3-c] quinoline-4-one as novel selective cyclooxygenase-2 inhibitors” (Bioorg Med Chem Lett, 2004)

How the values were obtained:
[1] = target: T1, Prostaglandin G/H synthase 1 (Ovis aries) (UniProt P05979); test: Inhibition of prostaglandin G/H synthase 1 enzyme from ram seminal vesicles by spectrophotometric method at 10 uM
T1 sequence (whole entry): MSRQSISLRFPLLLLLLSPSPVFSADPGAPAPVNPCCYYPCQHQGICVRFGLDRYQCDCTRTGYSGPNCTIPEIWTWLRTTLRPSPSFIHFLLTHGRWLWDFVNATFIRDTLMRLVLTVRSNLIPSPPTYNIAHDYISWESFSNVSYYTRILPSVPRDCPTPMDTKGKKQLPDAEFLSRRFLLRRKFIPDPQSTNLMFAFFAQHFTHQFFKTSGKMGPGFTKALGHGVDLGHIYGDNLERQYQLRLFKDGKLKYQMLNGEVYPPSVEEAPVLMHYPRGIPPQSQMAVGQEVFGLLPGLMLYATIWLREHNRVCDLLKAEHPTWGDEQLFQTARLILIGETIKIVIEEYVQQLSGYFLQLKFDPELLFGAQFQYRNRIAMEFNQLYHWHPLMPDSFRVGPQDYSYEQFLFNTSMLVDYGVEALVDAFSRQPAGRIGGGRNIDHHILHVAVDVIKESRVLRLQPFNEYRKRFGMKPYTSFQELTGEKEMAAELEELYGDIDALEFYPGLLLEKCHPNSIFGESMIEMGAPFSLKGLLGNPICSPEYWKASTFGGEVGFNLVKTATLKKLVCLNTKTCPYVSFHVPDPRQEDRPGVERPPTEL

[2] = target: T2, Prostaglandin G/H synthase 1 (Ovis aries, UniProt P05979); test: Inhibition of prostaglandin G/H synthase 1 enzyme from ram seminal vesicles by spectrophotometric method
T2 sequence (P05979 whole entry): T1 sequence (whole entry)

[3] = target: T3, Prostaglandin G/H synthase 2 (Homo sapiens, UniProt P35354); test: Inhibition of human Prostaglandin G/H synthase 2 in sf-9 cells by spectrophotometric method
T3 sequence (P35354 whole entry): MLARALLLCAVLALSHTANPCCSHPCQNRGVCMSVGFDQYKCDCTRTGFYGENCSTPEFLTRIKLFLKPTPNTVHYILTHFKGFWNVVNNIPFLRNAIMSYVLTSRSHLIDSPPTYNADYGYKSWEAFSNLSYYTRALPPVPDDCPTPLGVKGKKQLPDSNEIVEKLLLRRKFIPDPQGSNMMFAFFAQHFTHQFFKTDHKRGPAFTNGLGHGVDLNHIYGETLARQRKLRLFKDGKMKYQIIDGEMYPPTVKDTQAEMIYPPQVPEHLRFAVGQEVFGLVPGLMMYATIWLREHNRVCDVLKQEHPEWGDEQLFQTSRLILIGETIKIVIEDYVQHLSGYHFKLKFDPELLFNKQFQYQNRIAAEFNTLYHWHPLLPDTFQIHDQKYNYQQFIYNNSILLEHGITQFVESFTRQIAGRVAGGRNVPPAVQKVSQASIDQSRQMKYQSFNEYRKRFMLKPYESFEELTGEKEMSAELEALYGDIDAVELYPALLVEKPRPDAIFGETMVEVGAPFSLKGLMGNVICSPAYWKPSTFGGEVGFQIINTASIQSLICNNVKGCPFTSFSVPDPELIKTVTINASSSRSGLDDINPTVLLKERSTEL

Rattus norvegicus = test: Activity in Carrageenan induced rat paw model at 30 mg/Kg; Range = 25-45%; format: functional
[4] = target: T3, Prostaglandin G/H synthase 2; test: Inhibition of human Prostaglandin G/H synthase 2 in sf-9 cells by spectrophotometric method; format: cell-based, Sf9

SMILES	inhibition [1] [%]	also measured
NS(=O)(=O)c1ccc(C(Nc2ncccn2)C(=O)c2ccc(F)cc2)cc1 (centres undefined)	-0	
Cc1nn(-c2ccc(S(=O)(=O)NCc3ccccc3)cc2)c2c1c(O)nc1ccc([N+](=O)[O-])cc12	78	
NS(=O)(=O)c1ccc(C(Nc2ccccn2)C(=O)c2ccc(F)cc2)cc1 (centres undefined)	30	
Cc1nn(-c2ccc(S(N)(=O)=O)cc2)c2c1c(=O)[nH]c1ccc([N+](=O)[O-])cc12		IC50 [2]: 4.7 µM; IC50 [3]: 0.24 µM
C[S+]([O-])c1ccc(C(Nc2cccnc2)C(=O)c2ccc(F)cc2)cc1 (centres undefined)	-0	IC50 [2]: 50 µM; IC50 [4]: 0.5 µM; Activity (Rattus norvegicus): <45%
Cc1nn(-c2ccc(S(N)(=O)=O)c(CO)c2)c2c1c(O)nc1ccc([N+](=O)[O-])cc12	-0	
C[S+]([O-])c1ccc(C(Nc2nccs2)C(=O)c2ccc(F)cc2)cc1 (centres undefined)	-0	IC50 [2]: 500 µM; IC50 [4]: 2.1 µM; Activity (Rattus norvegicus): <45%
Cc1nn(-c2ccc(S(N)(=O)=O)c(CO)c2)c2c1c(O)nc1ccccc12	-0	
Cc1nn(-c2ccc(S(N)(=O)=O)cc2)c2c1c(O)nc1ccccc12	20	
CSc1ccc(C(=O)C(Nc2ncccc2Cl)c2ccccc2)cc1 (centres undefined)	53	
C[S+]([O-])c1ccc(C(=O)C(Nc2nccs2)c2ccccc2)cc1 (centres undefined)	29	

Further lines, with some results ahead:

inhibition [1] [%]	SMILES	also measured
46	Cc1nn(-c2ccccc2)c2c1c(O)nc1ccc([N+](=O)[O-])cc12	IC50 [2]: 5 µM; IC50 [3]: 0.55 µM; Activity (Rattus norvegicus): <45%
-0	NS(=O)(=O)c1ccc(C(Nc2nccs2)C(=O)c2ccc(F)cc2)cc1 (centres undefined)	
10	CS(=O)(=O)c1ccc(C(=O)C(Nc2nccs2)c2ccccc2)cc1 (centres undefined)	
40	Cc1nn(-c2ccc(S(N)(=O)=O)cc2)c2c1c(O)nc1ccc([N+](=O)[O-])cc12	Activity (Rattus norvegicus): <45%
82	Cc1nn(-c2ccccc2)c2c1c(O)nc1ccccc12	
-0	CS(=O)(=O)c1ccc(C(Nc2nccs2)C(=O)c2ccc(F)cc2)cc1 (centres undefined)	
23	NS(=O)(=O)c1ccc(C(Nc2nc3ccccc3s2)C(=O)c2ccc(F)cc2)cc1 (centres undefined)	
